Data taken from patent US20120100204A1, “TGF-Beta Stimulating Agent Compositions and Combinations” (TCP INNOVATIONS LTD, priority 2007, published 2012).

What was measured:
fibrin(ogen) = fibrin(ogen) deposition into the blood vessel wall, quantitative immunofluoresence
From the text: Adult male apoE-deficient mice, back-crossed onto a C57B16 background for at least five generations, were randomised into groups of eight animals at 12 weeks of age, such that each group had similar average body weight. […] The amount of food eaten and the body weight of each mouse was monitored daily for the first week, and once per week thereafter. After 12 weeks of treatment, the mice were sacrificed by CO2 asphyxiation, and heart & lung blocks were excised, embedded in Cryo-M-bed (Bright Instruments, UK) without fixation and snap frozen in liquid nitrogen.
Sections were then prepared from the aortic root according to the Paigen Strategy (a defined sequence of cutting sections which allow reproducible comparison between animals; see for example Grainger et al. (1995) Nature Med. 1:1067-72 and the references therein). 4 μm crysosections were cut using a motordriven cryotome (Bright Instruments) and collected onto poly-L-lysine coated glass microscope slides, then fixed in ice-cold acetone for 90 secs, allowed to air dry and stored at −20° C. until analysed.
The level of fibrin or fibrinogen deposited into the vessel wall was also estimated by quantitative immunofluoresence, using a method identical to that for TGF-beta1, except that the primary antibody was sheep anti-fibrin(ogen) (Chemicon; 2 μg/ml) and the secondary antibody was donkey anti-sheep IgG minimum cross-reactivity, FITC labelled (Jackson Immunoresearch), as previously described (Thromb Res. 2001 Apr. 1; 102(1):71-80).
Adult male apoE-deficient mice were treated, in groups of 8, with fish oil (Seven Seas, UK), aspirin or both agents simultaneously from 12 weeks of age until 24 weeks of age, exactly as described in Example 2.
The levels of TGF-beta1 and fibrin(ogen) in the vessel wall were determined by quantitative immunofluoresence, exactly as described in example 2.

TGF-beta activity = TGF-beta activity by effect on SMC proliferation (CPD) with and without neutralising anti-TGF-beta antibody; assay type: cell-based, human; conditions: 0 μM T, 72 hrs
Description: (1995) Cardiovasc. Res. 29:848-55). […] The cells were then incubated for either 24 hrs or 72 hrs depending on the experiment. All treatment conditions were established in triplicate. Finally, TGF-beta activity was estimated by the direct effects on smooth muscle cell proliferation within the assay. For these experiments, the test agents were added, in triplicate, to cells both in the presence and absence of a neutralising antibody to TGF-beta (AB-100-NA; […] R&D Systems). After 72 hrs incubation, the cells are washed and then released completely using 0.02% trypsin/EDTA (Gibco) at 37° C. for 10 mins, then counted manually using a haemocytometer. Importantly, the number of cells at 0 hrs must also be determined (using the same counting method, on a replicate set of three wells plated out specifically for the purpose). For each treatment condition, the TGF-beta-dependent inhibition of proliferation is expressed as the fold increase in the cumulative population doubling time in the absence of the neutralising antibody compared to the cumulative population doubling time in the presence of the neutralising antibody. […] Failure of either control led to the repeat of the experiment.

tgfb1 mRNA = tgfb1 mRNA level by quantitative PCR in human aortic vascular smooth muscle cells; assay type: cell-based; conditions: 24 hrs
Description: (1995) Cardiovasc. Res. 29:848-55). […] The cells were then incubated for either 24 hrs or 72 hrs depending on the experiment. All treatment conditions were established in triplicate. The level of mRNA for tgfb1, tgfb2 and tgfb3 were estimated by quantitative PCR. The media was removed and RNA was carefully prepared using the Ambion RNAqueous4PCR kit (Ambion#1914) in accordance with the manufacturer's instructions. The purity of the RNA and the quantity was assessed spectrophotometrically. […] This analysis results in both a gel-like image as well as electrophoretic data. Indications of RNA degradation are: (a) decreasing ratio of ribosomal bands (b) additional peaks bellow the ribosomal bands (c) Decrease in overall RNA signal (d) shift towards shorter fragments. All the mRNA samples used in the experiments presented here passed this RNA quality control step. Next, the RNA was converted to cDNA using the ABI High-Capacity cDNA Archive Kit, in accordance with manufacturer's instructions. […] Samples were vortexed to ensure thorough mixing. cDNA was aliquoted into ABI 384 well plates using a multi-channel pipette, 4.5 μl of sample into each well. Samples were assayed in triplicate (that is, nine determinations in total were made for each condition, being three separate assays on each of three replicate culture wells). The assay mix and Universal Master Mix were prepared and aliquoted across the 384 well plates 5.5 μl in each well, using a single channel pipette. The final composition of each reaction (10 μl) being: […] Universal Master Mix=5 μl; cDNA=4.5 μl. The plates were then heat sealed using Abgene clear seal strong plastic heat seals, and then cycled and scanned using the ABI 9700HT under the following conditions: 95° C. for 10 minutes to activate the AmpliTaq GOLD, then 40 cycles of: 95° C. for 15 sec (Denaturation), 60° C. for 60 […]). […] Quantitative PCR was performed using several primer/probe sets. […] We used both commercially available primer/probe sets (ABI Taqman pre-validated assays), using both available sets in the ABI database for tgfb1 and tgfb2, as well as the single available set for tgfb3. In addition, we used our own manual design probe/primer set for each of tgfb1, tgfb2 and tgfb3. For normalisation, we used TATA-binding protein (TBP) as the primary normalisation standard, with GAPDH as an alternative for confirmation, using ABI Taqman pre-validated probe/primer sets. […] Neither TBP nor GAPDH mRNA levels are affected by TGF-beta and are therefore equally suitable, however TBP was selected as the primary normalisation standard because the absolute level of mRNA in most cell types is similar to that of the TGF-beta isoforms, resulting in lower errors on calculating the ratio, and improving the power of the experiment. In all quantitative PCR experiments, several additional controls were included: firstly, a control for each sample is run with no reverse transcription to ensure the mRNA sample is not contaminated with genomic DNA (although the manual design probe/primer sets were all selected to cross an exon/exon boundary, ensuring no detectable amplicon is produced from genomic DNA templates). […] This control ensures that the results for the unknown samples are obtained in the linear range of the amplification process, and are therefore truly quantitative. Failure of either control led to the repeat of the entire experiment. Typically, the half maximal signal was obtained after 20-30 amplification cycles. […]

[1] = pro-thrombin time (PTT) in men with coronary artery disease; conditions: men with coronary heart disease, 3 months, Tamoxifen 20 mg once daily, vs baseline
Description: Patients continued with all other medications (statins, ACE inhibitors, beta blockers, calcium channel blockers, diuretics etc), but no patients were taking warfarin or tirofiban.
The coagulant status of the individuals was assessed using the pro-thrombin time (PTT, measured clinically; Hinchingbrooke Hospital, UK). PTT was measured twice, one week apart, prior to beginning the study, and then after 90 days treatment. In each case, each patient acted as their own control, and the impact of the treatment on PTT was assessed using a paired Student's t-test comparing the PTT at 90 days with the average of the two baseline determinations.

[2] = translated from the relative risk; cited from earlier work

CC(=O)Oc1ccccc1C(=O)O [Aspirin, acetylsalicylic acid]
effect on fibrin(ogen) deposition into the blood vessel wall (in words) (fibrin(ogen); mouse, in vivo): significantly reduced
TGF-beta activity: ratio of CPD in the absence and presence of neutralising anti-TGF-beta antibody (TGF-beta activity; 10 μM A): 1.05 ± 0.09 fold
TGF-beta activity: ratio of CPD in the absence and presence of neutralising anti-TGF-beta antibody (TGF-beta activity; 33 μM A): 1.13 ± 0.17 fold
TGF-beta activity: ratio of CPD in the absence and presence of neutralising anti-TGF-beta antibody (TGF-beta activity; 100 μM A): 1.25 fold
TGF-beta activity: ratio of CPD in the absence and presence of neutralising anti-TGF-beta antibody (TGF-beta activity; 100 μM A, listed as A): 1.25 ± 0.06 fold
Level of mRNA, estimated by qPCR: tgfb1 (tgfb1 mRNA; 10 μM A): 1.01 ± 0.04 fold-change
Level of mRNA, estimated by qPCR: tgfb1 (tgfb1 mRNA; 33 μM A): 0.93 ± 0.11 fold-change
Level of mRNA, estimated by qPCR: tgfb1 (tgfb1 mRNA; 100 μM A): 1.06 ± 0.08 fold-change
effect on the mRNA levels of any of the three isoforms of TGF-beta (tgfb1 mRNA; any concentration tested (up to 100 μM)): no statistically significant effect

CC/C(=C(\c1ccccc1)c1ccc(OCCN(C)C)cc1)c1ccccc1 [Tamoxifen]
Fibrin(ogen) staining (fibrin(ogen); apoE mice, 12 weeks, TMX 1 mg/kg/day, Aspirin 30 mg/kg/day, mean ± SD): 151 ± 7 AU
increase of fibrin(ogen) deposition into the vessel wall (fibrin(ogen); apoE mice, Tamoxifen 1 mg/kg/day, vs control): 23%
change in pro-thrombin time ([1]; Example 5, aspirin 75 mg once daily): +17%
change in pro-thrombin time ([1]; Example 6, clopidogrel 75 mg once daily): +19%
reduction in risk of death from myocardial infarction [2]: 33%
Level of mRNA, estimated by qPCR: tgfb1 (tgfb1 mRNA; 3.3 μM T, normalised to TBP, vs vehicle): 0.95 ± 0.16 fold-change
Level of mRNA, estimated by qPCR: tgfb1 (tgfb1 mRNA; 10 μM T): 1.27 ± 0.09 fold-change
Level of mRNA, estimated by qPCR: tgfb1 (tgfb1 mRNA; 33 μM T, listed as T): 1.41 ± 0.08 fold-change
Level of mRNA, estimated by qPCR: tgfb1 (tgfb1 mRNA; 33 μM T, listed as TMX): approximately 1.4 fold-change
doses that significantly increased tgfb1 mRNA (tgfb1 mRNA): ≥ 10 µM
